Data taken from patent publication US20240269309A1, “CAMPTOTHECIN ANALOGUES, CONJUGATES AND METHODS OF USE” (priority 2021, published 2024).

What was measured:
Assay type in all cases: cell-based
Calu-3 (lung cancer) = test: In vitro cytotoxicity of camptothecin analogues (CellTiter-Glo); conditions: Homo sapiens, Calu-3, 96 h; 4 d incubation, growth inhibition by CellTiter-Glo; read-out: pIC50 Calu-3 (converted)
Protocol: Cytotoxicity of the camptothecin analogues was assessed in vitro on the following cancer cell lines: SK-BR-3 (breast cancer), SKOV-3 (ovarian cancer), Calu-3 (lung cancer), ZR-75-1 (breast cancer) and MDA-MB-468 (breast cancer).
Briefly, serial dilutions of camptothecin analogues shown in Table 5.1 were prepared in RPMI 1640+10% FBS, and 20 uL of each dilution was added to 384-well plates. Cells cultured in log-phase growth were detached by brief incubation in 0.05% Trypsin and resuspended in respective culturing media at 20,000 cells/mL (with the exception of ZR-75 cells, which were resuspended at 10,000 cells/mL). 50 uL of cell suspension was then added to the plates containing test articles. Cells were incubated with test articles for 4 d at 37° C. (with the exception of ZR-75 cells, which were incubated for 5 d). Growth inhibition was assessed by CellTiter-Glo® (Promega Corporation, Madison, WI) and luminescence was measured on a Synergy™ H1 plate reader (BioTek Instruments, Winooski, VT). IC50 values were determined by GraphPad Prism (GraphPad Software, San Diego, CA).

[1] = test system: EBC-1 (lung carcinoma; FRα-negative) spheroids; test: In vitro cytotoxicity of anti-FRα ADCs, 3D spheroids; conditions: monoculture spheroids, 6-day treatment
Protocol: (§1) The cytotoxicity capabilities of select ADCs from Example 12 were assessed in a panel of FRα-expressing cell line spheroids as described below. Cell lines used were IGROV-1 (ovarian adenocarcinoma), T-47D (breast carcinoma), OVCAR-3 (ovarian adenocarcinoma), HEC-1-A (uterine adenocarcinoma) and EBC-1 (lung carcinoma; FRα-negative).
(§2) Briefly, cells were seeded in Ultra-Low Attachment 384-well plates, centrifuged and incubated under standard culturing conditions to allow for spheroid formation and growth. Monoculture cell line spheroids were then treated with a titration of test article, generated in cell growth medium. Spheroids were incubated for 6 days under standard culturing conditions. After incubation, CellTiter-Glo® 3D reagent (Promega Corporation, Madison, WI) was spiked in all wells. Plates were incubated in the dark at room temperature for 1 hour and luminescence was quantified using a BioTek Cytation 5 Cell Imaging Multi-Mode Reader (Agilent Technologies, Inc., Santa Clara, CA). Based on blank wells (no test article added), percent cytotoxicity values were calculated and plotted against test article concentration using GraphPad Prism 9 software (GraphPad Software, San Diego, CA).

[2] = test system: T-47D (breast carcinoma) spheroids; test: as above; conditions: monoculture spheroids, 6-day treatment
Protocol: as §1, §2

[3] = test system: IGROV-1 (ovarian adenocarcinoma) spheroids; test: as above; conditions: monoculture spheroids, 6-day treatment
Protocol: as §1, §2

[4] = test system: HEC-1-A (uterine adenocarcinoma) spheroids; test: as above; conditions: monoculture spheroids, 6-day treatment
Protocol: as §1, §2

[5] = test system: OVCAR-3 (ovarian adenocarcinoma) spheroids; test: as above; conditions: monoculture spheroids, 6-day treatment
Protocol: as §1, §2

Row | Molecule | IC50 (Calu-3 (lung cancer)) | EC50 [1] | EC50 [2] | EC50 [3] | EC50 [4] | EC50 [5]
1 | CC[C@@]1(O)C(=O)OCc2c1cc1n(c2=O)Cc2c-1nc1cc(F)c(OC)cc1c2CNC(=O)NCc1ccc(N)cc1 [Compound 135, (S)-1-(4-aminobenzyl)-3-((4-ethyl-8-fluoro-4-hydroxy-9-methoxy-3,14-dioxo-3,4,12,14-tetrahydro-1H-pyrano[3′,4′: 6,7]indolizino[1,2-b]quinolin-11-yl)methyl)urea] | 25.1 nM | – | – | – | – | –
2 | v21995-MC-GGFG-DXd: "ADCs comprising the antibody palivizumab (v21995) were used as non-targeted controls"; drug-linker MC-GGFG-DXd | – | 24.4 nM | 17.8 nM | 16.7 nM | 27.6 nM | 46 nM
